Source: the supplement of paper PMC12076712

Legend:
Experiment in all cases: pIC50, kinobeads binding competition
LYN = LYN (UniProt P07948)
Method in brief: (§1)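 Either living Jurkat cells (60 min at 37 °C, then lysis) or lysates (60 min at 4 °C) were treated with nine compound concentrations from a top of 30 μM, in 1:4 steps for cells and 1:5 steps for lysates. The lysates were from Jurkat cells or a 1:1:1:1 mix of HEK293, K-562, HepG2 and placenta. Kinobeads-bound proteins were digested and quantified by TMT10 LC-MS/MS. pIC50 was calculated by logistic dose-response fitting (R drc package) of fold changes relative to vehicle, in biological duplicates.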

MARK2 = MARK2 (UniProt Q7KZI7)
MARK2, sequence (Q7KZI7 whole entry): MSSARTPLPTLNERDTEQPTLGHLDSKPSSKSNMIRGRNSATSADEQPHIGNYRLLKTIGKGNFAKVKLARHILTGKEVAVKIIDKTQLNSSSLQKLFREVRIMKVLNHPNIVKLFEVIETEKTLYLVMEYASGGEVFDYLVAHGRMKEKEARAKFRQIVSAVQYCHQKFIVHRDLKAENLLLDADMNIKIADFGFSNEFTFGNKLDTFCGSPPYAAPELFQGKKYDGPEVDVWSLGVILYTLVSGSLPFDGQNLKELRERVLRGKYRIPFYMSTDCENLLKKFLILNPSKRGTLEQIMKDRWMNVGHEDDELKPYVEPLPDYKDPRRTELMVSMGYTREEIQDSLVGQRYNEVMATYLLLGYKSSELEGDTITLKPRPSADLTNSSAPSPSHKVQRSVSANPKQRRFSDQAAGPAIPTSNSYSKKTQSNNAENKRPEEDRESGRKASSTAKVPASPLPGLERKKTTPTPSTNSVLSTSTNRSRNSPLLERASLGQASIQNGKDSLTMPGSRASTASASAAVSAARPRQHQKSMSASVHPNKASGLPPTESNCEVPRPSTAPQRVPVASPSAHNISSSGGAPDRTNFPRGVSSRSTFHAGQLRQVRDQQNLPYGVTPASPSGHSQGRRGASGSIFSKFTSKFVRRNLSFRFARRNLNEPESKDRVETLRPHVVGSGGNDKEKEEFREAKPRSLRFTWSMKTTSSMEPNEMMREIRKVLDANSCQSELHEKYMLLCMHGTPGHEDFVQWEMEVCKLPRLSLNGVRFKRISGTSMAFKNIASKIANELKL
Method in brief: as §1

NEK1 = biological target: T1, NEK1 (UniProt Q96PY6)
T1 sequence (whole entry): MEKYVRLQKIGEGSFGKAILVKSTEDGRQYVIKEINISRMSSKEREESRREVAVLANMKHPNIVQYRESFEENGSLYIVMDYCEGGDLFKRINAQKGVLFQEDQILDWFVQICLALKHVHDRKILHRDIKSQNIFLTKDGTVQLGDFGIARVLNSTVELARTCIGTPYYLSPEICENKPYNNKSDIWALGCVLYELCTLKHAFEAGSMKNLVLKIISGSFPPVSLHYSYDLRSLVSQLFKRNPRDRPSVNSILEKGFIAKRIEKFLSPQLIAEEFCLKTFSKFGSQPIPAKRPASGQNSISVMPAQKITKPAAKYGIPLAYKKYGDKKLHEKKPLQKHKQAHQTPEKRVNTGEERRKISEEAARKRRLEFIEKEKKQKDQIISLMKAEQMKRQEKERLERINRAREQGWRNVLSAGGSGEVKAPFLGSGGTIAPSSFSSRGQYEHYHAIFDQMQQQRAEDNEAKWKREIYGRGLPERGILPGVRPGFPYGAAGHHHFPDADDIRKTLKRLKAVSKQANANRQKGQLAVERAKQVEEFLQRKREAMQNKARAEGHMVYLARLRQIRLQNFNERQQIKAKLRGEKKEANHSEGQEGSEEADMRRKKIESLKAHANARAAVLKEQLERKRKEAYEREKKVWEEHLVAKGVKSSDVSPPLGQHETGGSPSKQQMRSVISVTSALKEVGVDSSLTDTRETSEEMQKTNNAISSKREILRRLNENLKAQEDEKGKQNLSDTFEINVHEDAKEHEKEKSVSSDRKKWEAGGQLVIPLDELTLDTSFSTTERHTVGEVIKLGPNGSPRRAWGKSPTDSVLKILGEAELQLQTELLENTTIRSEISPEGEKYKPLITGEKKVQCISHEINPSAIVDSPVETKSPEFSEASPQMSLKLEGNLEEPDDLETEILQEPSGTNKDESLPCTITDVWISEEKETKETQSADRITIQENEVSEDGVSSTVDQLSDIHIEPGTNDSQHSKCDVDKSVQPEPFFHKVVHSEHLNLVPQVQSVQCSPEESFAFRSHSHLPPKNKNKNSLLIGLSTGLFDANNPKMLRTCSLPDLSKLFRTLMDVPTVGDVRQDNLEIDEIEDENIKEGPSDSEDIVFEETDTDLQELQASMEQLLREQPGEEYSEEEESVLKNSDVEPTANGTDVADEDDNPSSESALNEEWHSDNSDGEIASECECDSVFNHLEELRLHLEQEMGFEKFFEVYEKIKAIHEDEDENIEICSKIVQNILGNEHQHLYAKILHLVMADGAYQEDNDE
Method in brief: as §1

ROCK1 = ROCK1 (UniProt Q13464)
ROCK1, sequence (Q13464 whole entry, looked up): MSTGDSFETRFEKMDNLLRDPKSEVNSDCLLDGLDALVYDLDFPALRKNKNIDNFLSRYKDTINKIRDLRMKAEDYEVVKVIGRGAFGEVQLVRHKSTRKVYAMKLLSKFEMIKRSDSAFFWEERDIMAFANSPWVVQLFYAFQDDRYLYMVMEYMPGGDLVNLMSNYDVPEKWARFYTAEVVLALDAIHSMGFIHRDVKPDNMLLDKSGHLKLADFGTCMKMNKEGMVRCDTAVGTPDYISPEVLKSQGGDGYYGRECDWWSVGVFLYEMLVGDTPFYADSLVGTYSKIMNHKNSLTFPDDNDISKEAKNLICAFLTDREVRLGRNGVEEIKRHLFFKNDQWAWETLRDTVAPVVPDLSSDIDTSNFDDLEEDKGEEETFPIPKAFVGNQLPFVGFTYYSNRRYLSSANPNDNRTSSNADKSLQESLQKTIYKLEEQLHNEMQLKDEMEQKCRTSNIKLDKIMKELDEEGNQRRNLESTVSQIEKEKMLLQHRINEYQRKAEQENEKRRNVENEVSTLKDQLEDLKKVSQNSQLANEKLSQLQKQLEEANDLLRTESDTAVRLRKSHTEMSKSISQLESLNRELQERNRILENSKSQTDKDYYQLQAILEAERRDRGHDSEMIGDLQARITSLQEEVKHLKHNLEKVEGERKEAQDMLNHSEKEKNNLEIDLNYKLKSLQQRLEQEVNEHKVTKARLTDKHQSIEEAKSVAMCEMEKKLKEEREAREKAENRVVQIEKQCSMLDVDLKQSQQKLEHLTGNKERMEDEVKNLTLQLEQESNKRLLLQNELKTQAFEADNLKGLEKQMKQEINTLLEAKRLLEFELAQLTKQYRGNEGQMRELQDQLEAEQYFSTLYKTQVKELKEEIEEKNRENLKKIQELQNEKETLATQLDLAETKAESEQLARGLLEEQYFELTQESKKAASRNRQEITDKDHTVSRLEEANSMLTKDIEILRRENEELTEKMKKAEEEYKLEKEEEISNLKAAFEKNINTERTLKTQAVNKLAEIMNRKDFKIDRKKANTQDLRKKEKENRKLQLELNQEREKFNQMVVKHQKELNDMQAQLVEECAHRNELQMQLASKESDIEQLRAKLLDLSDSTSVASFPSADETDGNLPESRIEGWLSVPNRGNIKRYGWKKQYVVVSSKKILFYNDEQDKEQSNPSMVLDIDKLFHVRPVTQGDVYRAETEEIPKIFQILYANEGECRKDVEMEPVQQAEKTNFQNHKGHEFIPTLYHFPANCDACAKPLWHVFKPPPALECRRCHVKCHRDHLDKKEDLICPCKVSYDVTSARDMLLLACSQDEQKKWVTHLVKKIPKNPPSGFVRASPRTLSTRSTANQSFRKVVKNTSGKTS
Method in brief: as §1

TEC = biological target: T2, TEC (UniProt P42680)
T2 sequence (whole entry): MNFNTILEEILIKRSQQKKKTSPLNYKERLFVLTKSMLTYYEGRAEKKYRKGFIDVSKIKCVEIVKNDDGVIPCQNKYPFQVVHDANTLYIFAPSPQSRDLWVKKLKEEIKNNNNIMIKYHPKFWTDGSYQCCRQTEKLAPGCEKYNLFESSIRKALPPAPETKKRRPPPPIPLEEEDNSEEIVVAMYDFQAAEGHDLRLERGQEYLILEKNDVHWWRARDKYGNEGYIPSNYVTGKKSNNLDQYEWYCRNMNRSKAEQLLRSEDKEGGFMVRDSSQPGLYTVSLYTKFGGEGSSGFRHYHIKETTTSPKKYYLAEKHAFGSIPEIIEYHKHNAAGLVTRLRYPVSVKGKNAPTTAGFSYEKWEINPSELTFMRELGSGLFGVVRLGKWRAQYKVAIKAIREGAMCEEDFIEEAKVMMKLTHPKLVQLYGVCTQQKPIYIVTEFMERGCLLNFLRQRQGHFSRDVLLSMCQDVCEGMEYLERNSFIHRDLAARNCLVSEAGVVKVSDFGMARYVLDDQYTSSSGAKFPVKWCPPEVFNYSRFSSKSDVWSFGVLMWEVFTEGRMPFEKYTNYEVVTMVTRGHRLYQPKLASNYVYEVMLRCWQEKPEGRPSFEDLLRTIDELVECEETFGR
Method in brief: as §1

TGFBR2 = TGFBR2 (UniProt P37173)
TGFBR2, sequence (P37173 whole entry): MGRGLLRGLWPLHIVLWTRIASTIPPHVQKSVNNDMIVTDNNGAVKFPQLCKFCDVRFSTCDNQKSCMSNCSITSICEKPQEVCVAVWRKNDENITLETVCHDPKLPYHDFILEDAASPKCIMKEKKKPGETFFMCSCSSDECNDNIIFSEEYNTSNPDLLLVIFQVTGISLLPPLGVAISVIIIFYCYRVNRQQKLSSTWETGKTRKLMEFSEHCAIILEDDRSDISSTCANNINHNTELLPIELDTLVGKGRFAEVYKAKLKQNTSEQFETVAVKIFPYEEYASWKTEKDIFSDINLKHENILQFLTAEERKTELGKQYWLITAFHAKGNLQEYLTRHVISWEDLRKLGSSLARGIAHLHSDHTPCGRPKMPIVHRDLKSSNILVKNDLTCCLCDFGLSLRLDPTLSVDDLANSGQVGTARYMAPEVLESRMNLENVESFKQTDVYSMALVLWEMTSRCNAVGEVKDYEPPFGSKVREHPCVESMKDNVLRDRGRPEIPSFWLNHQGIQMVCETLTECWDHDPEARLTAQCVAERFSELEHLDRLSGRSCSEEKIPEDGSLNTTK
Method in brief: as §1

UniProt O75582 = biological target: UniProt O75582
Method in brief: as §1

UniProt Q9H0K1 = biological target: UniProt Q9H0K1
UniProt Q9H0K1, sequence (Q9H0K1 whole entry, looked up): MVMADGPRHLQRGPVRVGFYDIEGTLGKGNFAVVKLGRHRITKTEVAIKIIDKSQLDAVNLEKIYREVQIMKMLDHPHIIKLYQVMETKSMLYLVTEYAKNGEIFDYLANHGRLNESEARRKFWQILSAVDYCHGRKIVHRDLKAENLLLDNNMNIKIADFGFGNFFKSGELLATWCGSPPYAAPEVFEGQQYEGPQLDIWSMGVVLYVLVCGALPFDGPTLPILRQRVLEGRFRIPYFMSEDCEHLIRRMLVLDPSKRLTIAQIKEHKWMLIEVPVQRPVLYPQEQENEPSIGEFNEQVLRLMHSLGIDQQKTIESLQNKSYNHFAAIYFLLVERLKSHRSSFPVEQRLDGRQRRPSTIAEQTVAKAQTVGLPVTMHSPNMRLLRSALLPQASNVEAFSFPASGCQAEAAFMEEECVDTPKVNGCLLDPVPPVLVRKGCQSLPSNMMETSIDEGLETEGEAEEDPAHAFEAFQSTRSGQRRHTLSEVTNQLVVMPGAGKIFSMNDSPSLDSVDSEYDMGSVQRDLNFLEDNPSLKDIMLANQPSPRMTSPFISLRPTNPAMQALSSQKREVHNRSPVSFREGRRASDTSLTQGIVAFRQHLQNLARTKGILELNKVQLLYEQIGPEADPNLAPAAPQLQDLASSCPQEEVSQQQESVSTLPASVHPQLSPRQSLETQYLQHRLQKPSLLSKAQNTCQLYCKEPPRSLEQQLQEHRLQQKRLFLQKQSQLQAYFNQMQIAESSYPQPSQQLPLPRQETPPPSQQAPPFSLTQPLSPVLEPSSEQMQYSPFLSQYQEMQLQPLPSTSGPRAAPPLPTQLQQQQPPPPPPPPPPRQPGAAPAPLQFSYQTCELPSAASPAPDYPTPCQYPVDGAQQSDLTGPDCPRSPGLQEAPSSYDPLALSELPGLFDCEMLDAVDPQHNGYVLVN
Method in brief: as §1

WEE1 = WEE1 (UniProt P30291)
WEE1, sequence (P30291 whole entry, looked up): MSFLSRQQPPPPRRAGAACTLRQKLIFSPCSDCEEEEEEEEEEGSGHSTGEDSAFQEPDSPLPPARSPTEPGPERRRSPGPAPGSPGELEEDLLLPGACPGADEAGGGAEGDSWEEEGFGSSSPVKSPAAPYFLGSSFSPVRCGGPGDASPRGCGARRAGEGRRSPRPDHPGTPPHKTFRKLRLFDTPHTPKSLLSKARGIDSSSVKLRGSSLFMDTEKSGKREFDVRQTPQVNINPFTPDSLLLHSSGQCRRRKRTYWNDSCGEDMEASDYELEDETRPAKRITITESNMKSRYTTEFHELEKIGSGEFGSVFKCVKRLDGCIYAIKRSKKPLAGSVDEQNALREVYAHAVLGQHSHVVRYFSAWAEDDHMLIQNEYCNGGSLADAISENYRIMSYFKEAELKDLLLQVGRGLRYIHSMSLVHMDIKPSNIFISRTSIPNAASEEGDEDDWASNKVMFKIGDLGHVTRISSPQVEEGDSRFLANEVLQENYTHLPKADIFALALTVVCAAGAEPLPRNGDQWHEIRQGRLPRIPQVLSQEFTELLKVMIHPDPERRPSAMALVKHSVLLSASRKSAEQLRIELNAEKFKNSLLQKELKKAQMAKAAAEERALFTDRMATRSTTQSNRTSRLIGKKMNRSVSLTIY
Method in brief: as §1

LYN, sequence (P07948 whole entry, looked up): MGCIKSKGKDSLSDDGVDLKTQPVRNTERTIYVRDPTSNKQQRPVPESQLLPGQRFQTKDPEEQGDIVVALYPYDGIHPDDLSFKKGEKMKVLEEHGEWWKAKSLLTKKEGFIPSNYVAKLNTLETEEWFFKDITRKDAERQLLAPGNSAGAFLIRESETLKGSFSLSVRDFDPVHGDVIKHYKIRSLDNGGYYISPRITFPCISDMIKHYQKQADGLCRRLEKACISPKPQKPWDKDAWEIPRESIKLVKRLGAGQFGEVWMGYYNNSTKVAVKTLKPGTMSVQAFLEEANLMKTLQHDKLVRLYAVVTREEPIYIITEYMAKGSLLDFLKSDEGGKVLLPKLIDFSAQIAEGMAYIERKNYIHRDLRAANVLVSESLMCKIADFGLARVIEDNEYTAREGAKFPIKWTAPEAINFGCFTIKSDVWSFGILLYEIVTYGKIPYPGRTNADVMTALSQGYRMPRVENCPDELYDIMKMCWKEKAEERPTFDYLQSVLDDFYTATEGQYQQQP

Question: With CCNC(=O)c1cc(Nc2cc(C)[nH]n2)nc(N2CCN(Cc3ccc(S(=O)(=O)F)cc3)CC2)n1 as the compound, how does the pIC50 (LYN; cell material: Lysate mix) read?
Answer: Its pIC50 is 5.98.

Question: What about the pIC50 (MARK2; cell material: Lysate mix) of the same compound?
Answer: The pIC50 was less than 4.52.

Question: What about the pIC50 (NEK1; cell material: Lysate mix) of the same compound?
Answer: The pIC50 was less than 4.52.

Question: And the pIC50 (ROCK1; cell material: Lysate mix)?
Answer: Its pIC50 is less than 4.52.

Question: And the pIC50 (TEC; cell material: Lysate mix)?
Answer: The pIC50 was less than 4.52.

Question: And the pIC50 (TGFBR2; cell material: Lysate mix)?
Answer: Its pIC50 is less than 4.52.

Question: And the pIC50 (UniProt O75582; cell material: Lysate mix)?
Answer: Its pIC50 is 4.83.

Question: What about the pIC50 (UniProt Q9H0K1; cell material: Lysate mix) of the same compound?
Answer: Its pIC50 is less than 4.52.

Question: And the pIC50 (WEE1; cell material: Lysate mix)?
Answer: The pIC50 was less than 4.52.

Question: Which results are given for CCNC(=O)c1cc(Nc2cc(C3CC3)[nH]n2)nc(N2CCN(Cc3ccc(S(=O)(=O)F)cc3)CC2)n1?
Answer: pIC50 (LYN; cell material: Lysate mix): 5.92; pIC50 (MARK2; cell material: Lysate mix): < 4.52; pIC50 (NEK1; cell material: Lysate mix): 4.86; pIC50 (ROCK1; cell material: Lysate mix): < 4.52; pIC50 (TEC; cell material: Lysate mix): < 4.52; pIC50 (TGFBR2; cell material: Lysate mix): < 4.52; pIC50 (UniProt O75582; cell material: Lysate mix): 5.35; pIC50 (UniProt Q9H0K1; cell material: Lysate mix): < 4.52; pIC50 (WEE1; cell material: Lysate mix): < 4.52

Question: Cc1cc(Nc2cc(C(=O)NCCNC(=O)OC3CC/C=C/CCC3)nc(N3CCN(Cc4ccc(S(=O)(=O)F)cc4)CC3)n2)n[nH]1 (stereo not given) was tested. Which pIC50 (LYN; cell material: Lysate mix) did it give?
Answer: Its pIC50 is less than 4.52.

Question: What about the pIC50 (MARK2; cell material: Lysate mix) of the same compound?
Answer: The pIC50 was less than 4.52.

Question: And the pIC50 (NEK1; cell material: Lysate mix)?
Answer: Its pIC50 is less than 4.52.

Question: And the pIC50 (ROCK1; cell material: Lysate mix)?
Answer: The pIC50 was less than 4.52.

Question: And the pIC50 (TEC; cell material: Lysate mix)?
Answer: Its pIC50 is less than 4.52.

Question: And the pIC50 (TGFBR2; cell material: Lysate mix)?
Answer: Its pIC50 is less than 4.52.

Question: What about the pIC50 (UniProt O75582; cell material: Lysate mix) of the same compound?
Answer: Its pIC50 is less than 4.52.

Question: And the pIC50 (UniProt Q9H0K1; cell material: Lysate mix)?
Answer: The pIC50 was less than 4.52.

Question: And the pIC50 (WEE1; cell material: Lysate mix)?
Answer: Its pIC50 is less than 4.52.

Question: Which results are given for C#CCNC(=O)c1cc(Nc2cc(C3CC3)[nH]n2)nc(N2CCN(Cc3ccc(S(=O)(=O)F)cc3)CC2)n1?
Answer: pIC50 (LYN; cell material: Jurkat lysate): 5.41; pIC50 (LYN; cell material: Lysate mix): 6.03; pIC50 (MARK2; cell material: Jurkat cells): 5.92; pIC50 (MARK2; cell material: Jurkat lysate): < 4.52; pIC50 (MARK2; cell material: Lysate mix): < 4.52; pIC50 (NEK1; cell material: Jurkat cells): 5.94; pIC50 (NEK1; cell material: Jurkat lysate): < 4.52; pIC50 (ROCK1; cell material: Jurkat lysate): < 4.52; pIC50 (ROCK1; cell material: Lysate mix): < 4.52; pIC50 (TEC; cell material: Jurkat cells): 5.88; pIC50 (TEC; cell material: Jurkat lysate): < 4.52; pIC50 (TEC; cell material: Lysate mix): < 4.52; pIC50 (TGFBR2; cell material: Jurkat cells): 5.5; pIC50 (TGFBR2; cell material: Jurkat lysate): < 4.52; pIC50 (TGFBR2; cell material: Lysate mix): < 4.52; pIC50 (UniProt O75582; cell material: Jurkat cells): 6; pIC50 (UniProt O75582; cell material: Jurkat lysate): 4.7; pIC50 (UniProt O75582; cell material: Lysate mix): 5.6; pIC50 (UniProt Q9H0K1; cell material: Jurkat cells): 6.22; pIC50 (UniProt Q9H0K1; cell material: Jurkat lysate): < 4.52; pIC50 (UniProt Q9H0K1; cell material: Lysate mix): < 4.52; pIC50 (WEE1; cell material: Jurkat cells): 5.62; pIC50 (WEE1; cell material: Jurkat lysate): < 4.52; pIC50 (WEE1; cell material: Lysate mix): < 4.52

Question: Which pIC50 (LYN; cell material: Lysate mix) does the source give for C#CCNC(=O)c1cc(Nc2cc(C)[nH]n2)nc(N2CCN(Cc3ccc(S(=O)(=O)F)cc3)CC2)n1 here?
Answer: Its pIC50 is 5.54.

Question: What about the pIC50 (MARK2; cell material: Lysate mix) of the same compound?
Answer: Its pIC50 is less than 4.52.

Question: And the pIC50 (NEK1; cell material: Lysate mix)?
Answer: The pIC50 was less than 4.52.

Question: What about the pIC50 (ROCK1; cell material: Lysate mix) of the same compound?
Answer: Its pIC50 is less than 4.52.

Question: And the pIC50 (TEC; cell material: Lysate mix)?
Answer: The pIC50 was less than 4.52.

Question: What about the pIC50 (TGFBR2; cell material: Lysate mix) of the same compound?
Answer: The pIC50 was less than 4.52.

Question: What about the pIC50 (UniProt O75582; cell material: Lysate mix) of the same compound?
Answer: Its pIC50 is 5.11.

Question: And the pIC50 (UniProt Q9H0K1; cell material: Lysate mix)?
Answer: The pIC50 was less than 4.52.

Question: What about the pIC50 (WEE1; cell material: Lysate mix) of the same compound?
Answer: Its pIC50 is less than 4.52.

Question: What does the source list for O=C(NCCNC(=O)c1cc(Nc2cc(C3CC3)[nH]n2)nc(N2CCN(Cc3ccc(S(=O)(=O)F)cc3)CC2)n1)OC1CC/C=C/CCC1 (stereo not given)?
Answer: pIC50 (LYN; cell material: Jurkat lysate): < 4.52; pIC50 (LYN; cell material: Lysate mix): < 4.52; pIC50 (MARK2; cell material: Jurkat cells): 5.04; pIC50 (MARK2; cell material: Jurkat lysate): < 4.52; pIC50 (MARK2; cell material: Lysate mix): < 4.52; pIC50 (NEK1; cell material: Jurkat cells): 5.43; pIC50 (NEK1; cell material: Jurkat lysate): < 4.52; pIC50 (NEK1; cell material: Lysate mix): < 4.52; pIC50 (ROCK1; cell material: Jurkat cells): < 4.52; pIC50 (ROCK1; cell material: Jurkat lysate): < 4.52; pIC50 (ROCK1; cell material: Lysate mix): < 4.52; pIC50 (TEC; cell material: Jurkat cells): 4.8; pIC50 (TEC; cell material: Jurkat lysate): < 4.52; pIC50 (TEC; cell material: Lysate mix): < 4.52; pIC50 (TGFBR2; cell material: Jurkat cells): < 4.52; pIC50 (TGFBR2; cell material: Jurkat lysate): < 4.52; pIC50 (TGFBR2; cell material: Lysate mix): < 4.52; pIC50 (UniProt O75582; cell material: Jurkat cells): 5.6; pIC50 (UniProt O75582; cell material: Jurkat lysate): < 4.52; pIC50 (UniProt O75582; cell material: Lysate mix): < 4.52; pIC50 (UniProt Q9H0K1; cell material: Jurkat cells): 5.62; pIC50 (UniProt Q9H0K1; cell material: Jurkat lysate): < 4.52; pIC50 (UniProt Q9H0K1; cell material: Lysate mix): < 4.52; pIC50 (WEE1; cell material: Jurkat lysate): < 4.52; pIC50 (WEE1; cell material: Lysate mix): < 4.52
